Test systems include HOP-62 NSCLC; ACHN renal; UO-31 renal; HS 578T breast; UACC-257 melanoma; SW-620 colon; CAKI-1 renal; RPMI-8226 leukemia; SF-539 CNS; CCRF-CEM leukemia.
Common to all, as to experiment: NCI-60 cell line screen, 48 h

The values that follow come from PubChem BioAssay (NCI).

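48-hour exposure; five concentrations; linearly interpolated endpoints. At the TGI there is no net growth.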 Some results are limits rather than exact numbers.

Turning to `Cc1oc2c(c1C)S(=O)(=O)C(C#N)=C(N(C)C)N2`, the TGI in the test with HOP-62 NSCLC, with ACHN renal, with UO-31 renal, in the test with HS 578T breast, in the test with UACC-257 melanoma and with SW-620 colon was greater than 100 µM throughout. Moreover, the TGI with CAKI-1 renal, in the test on RPMI-8226 leukemia and with SF-539 CNS was greater than 100 µM throughout.
`O=C(c1ccc(Cl)cc1)N(C(=S)N1CCN(c2ccccn2)CC1)C1CCCCC1`: the TGI in the test on CCRF-CEM leukemia, with HOP-62 NSCLC, in the test with ACHN renal, in the test with UO-31 renal, with UACC-257 melanoma and in the test with SW-620 colon was greater than 100 µM each time. Besides, the TGI in the test on CAKI-1 renal, in the test with RPMI-8226 leukemia and in the test with SF-539 CNS was greater than 100 µM each time.
Consider `NC1=NS(=O)(=O)Nc2nc(-c3ccccc3)[nH]c21`, for which the TGI in the test with CCRF-CEM leukemia, in the test with ACHN renal, in the test on UO-31 renal, in the test on UACC-257 melanoma, in the test on SW-620 colon and with RPMI-8226 leukemia was greater than 100 µM each time. This molecule gave a TGI in the test with SF-539 CNS greater than 100 µM.
In the case of `C=C(NC(=O)C(=C)NC(=O)c1csc(C2=NC3c4csc(n4)C4NC(=O)c5csc(n5)C(C(C)(O)C(C)O)NC(=O)C5CSC(=N5)/C(=C/C)NC(=O)C(C(C)O)NC(=O)c5csc(n5)C3(CC2)NC(=O)C(C)NC(=O)C(=C)NC(=O)C(C)NC(=O)C(C(C)CC)NC2C=Cc3c(C(C)O)cc(nc3C2O)C(=O)OC4C)n1)C(N)=O` (stereo not given), the TGI in the test on CCRF-CEM leukemia was 3.49 µM; in the test with HOP-62 NSCLC, 99.4 µM; with ACHN renal, 11.7 µM; in the test with UO-31 renal, greater than 100 µM; with UACC-257 melanoma, 4.22 µM; with SW-620 colon, 1.62 µM. For the same molecule, the values for the TGI in the test on CAKI-1 renal, in the test with RPMI-8226 leukemia and with SF-539 CNS were greater than 100 µM, 6.28 µM and 4.13 µM, respectively.
For `NC(CSSCC(N)=NCC12CC3CC(CC(C3)C1)C2)=NCC12CC3CC(CC(C3)C1)C2`, the TGI in the test on HOP-62 NSCLC was greater than 100 µM; in the test on ACHN renal, 26.6 µM; in the test with UO-31 renal, 46.7 µM; with HS 578T breast, 50.7 µM; in the test on UACC-257 melanoma, 30.5 µM; with SW-620 colon it was 41.6 µM. Further, the TGI with CAKI-1 renal turned out to be 36.4 µM; in the test with RPMI-8226 leukemia, 6.17 µM; with SF-539 CNS, 34.3 µM.
Regarding `N=c1c2c(=S)n(-c3ccccc3)c(=S)n(-c3ccccc3)c2nc(SCCN2CCCC2)n1-c1ccccc1`, the TGI in the test with CCRF-CEM leukemia was 1.25 µM; in the test with HOP-62 NSCLC, 12.4 µM; in the test on ACHN renal, 3.26 µM; with HS 578T breast, greater than 100 µM; with UACC-257 melanoma, 3.06 µM; in the test on CAKI-1 renal it was 3.11 µM. The TGI with SF-539 CNS was 9.71 µM.
On to `COc1ccc([C@@H]2CC(=O)N2)cc1`, for which the TGI in the test on CCRF-CEM leukemia, in the test with HOP-62 NSCLC, in the test with ACHN renal, in the test on UO-31 renal, with UACC-257 melanoma and in the test on CAKI-1 renal was greater than 100 µM throughout. Moreover, the TGI in the test on RPMI-8226 leukemia and in the test with SF-539 CNS was greater than 100 µM each time.
Regarding `O=C(O)c1ccc(C2=Cc3cc(Cl)ccc3OC2)cc1`, the TGI with CCRF-CEM leukemia, in the test on HOP-62 NSCLC, with ACHN renal, in the test on UO-31 renal, in the test on UACC-257 melanoma and with SW-620 colon was greater than 100 µM in each case. Also, the TGI with CAKI-1 renal, with RPMI-8226 leukemia and in the test with SF-539 CNS was greater than 100 µM throughout.
Regarding `C=C1C(=O)O[C@@H]2[C@H](O)[C@@H](C)[C@@H]3C=CC(=O)[C@@]3(C)[C@@H](OC(=O)/C(C)=C/C)[C@H]12`, the TGI in the test with CCRF-CEM leukemia worked out at 2.05 µM; in the test with HOP-62 NSCLC, 15.3 µM; in the test on UO-31 renal, 10.1 µM; with UACC-257 melanoma, 1.87 µM; with SW-620 colon, 1.14 µM; in the test on CAKI-1 renal, 2.02 µM. Also, the TGI in the test with RPMI-8226 leukemia was 0.473 µM; in the test on SF-539 CNS it was 1.96 µM.
Regarding `COc1cc(OC)c2c3c(OC)cc(OC)c4c(=O)c(O)c(C[C@@H](C)O)c(c5c(C[C@@H](C)O)c(O)c(=O)c1c25)c43`, the TGI with HOP-62 NSCLC is greater than 100 µM; in the test on ACHN renal, greater than 100 µM; with UO-31 renal, greater than 100 µM; with UACC-257 melanoma, greater than 100 µM; with SW-620 colon, 35.6 µM; in the test on CAKI-1 renal, 53.2 µM. Moreover, in the test with SF-539 CNS, the TGI came to 93.5 µM.
With `O=C(NC(=O)c1cc(-c2ccccc2)n[nH]1)c1ccccc1`, the TGI with CCRF-CEM leukemia, in the test on HOP-62 NSCLC, in the test with ACHN renal, in the test on UO-31 renal, in the test with HS 578T breast and in the test with UACC-257 melanoma was greater than 100 µM each time. In addition, the TGI in the test with SW-620 colon, with CAKI-1 renal and in the test on SF-539 CNS was greater than 100 µM each time.
For the molecule `CC(=O)Oc1c2c(c3n(c1=O)CCCC3)C(=O)N(c1ccccc1)C2=O`, the TGI in the test with CCRF-CEM leukemia, in the test with HOP-62 NSCLC, in the test on ACHN renal, with UO-31 renal, with HS 578T breast and in the test on SW-620 colon was greater than 100 µM each time. In addition, the TGI in the test on CAKI-1 renal and with SF-539 CNS was greater than 100 µM each time.
With `O=[N+]([O-])C(/C=N/Nc1ccccc1)/C=N/Nc1ccccc1`, the TGI in the test on CCRF-CEM leukemia, with HOP-62 NSCLC, in the test with ACHN renal, with UO-31 renal, in the test with UACC-257 melanoma and in the test with SW-620 colon was greater than 100 µM each time. Also, the TGI in the test on CAKI-1 renal and in the test with SF-539 CNS was greater than 100 µM each time.
Regarding `O=C1CC[C@@]2(O)[C@H]3Cc4ccc(-c5ccccc5)c5c4[C@@]2(CCN3CC2CC2)[C@H]1O5`, the TGI in the test on CCRF-CEM leukemia came out at 49.7 µM; in the test with HOP-62 NSCLC it was 40.6 µM; with ACHN renal, 42.4 µM; with UO-31 renal it was 32.2 µM; with UACC-257 melanoma it was 31.3 µM; with SW-620 colon, 25 µM. For the same molecule, the TGI with CAKI-1 renal stood at 36.7 µM; in the test with RPMI-8226 leukemia, 47.8 µM; in the test with SF-539 CNS, 33.5 µM.
As for `Cn1ncc2c(Cl)ncnc21`, the TGI with HOP-62 NSCLC, with ACHN renal, with UO-31 renal, in the test on HS 578T breast, in the test on UACC-257 melanoma and in the test with SW-620 colon was greater than 100 µM in each case. The TGI in the test on CAKI-1 renal, in the test with RPMI-8226 leukemia and in the test with SF-539 CNS was greater than 100 µM each time.
